Results from US20230322659A1, “STROBILURIN TYPE COMPOUNDS AND THEIR USE FOR COMBATING PHYTOPATHOGENIC FUNGI” (priority 2020, published 2023).

What was measured:
[1] = system: Phakopsora pachyrhizi (strain with amino acid substitution F129L in the mitochondrial cytochrome b protein); test: Use Example 2: protective control of soybean rust on soybeans (PHAKPA P6), greenhouse; format: in vivo; conditions: soybean seedlings inoculated six days after treatment, % diseased leaf area; for % PHAKPA Disease level P6 at 4 ppm: 4 ppm spray; for % PHAKPA Disease level P6 at 16 ppm: 16 ppm spray
Experimental: (§1) The compound was dissolved in a mixture of acetone and/or dimethylsulfoxide and the wetting agent/emulsifier Wettol, which is based on ethoxylated alkylphenoles, in a ratio (volume) solvent-emulsifier of 99 to 1 to give a total volume of 5 ml. Subsequently, water was added to total volume of 100 ml. This stock solution was then diluted with the described solvent-emulsifier-water mixture to the final concentration given in the table below.
(§2) Leaves of potted soybean seedlings were sprayed to run-off with the previously described spray solution, containing the concentration of active ingredient as described below. The plants were allowed to air-dry. The trial plants were cultivated for six days in a greenhouse chamber at 23-27° C. and a relative humidity between 60 and 80%. Then the plants were inoculated with spores of Phakopsora pachyrhizi. The strain used contains the amino acid substitution F129L in the mitochondrial cytochrome b protein conferring resistance to Qo inhibitors. To ensure the success the artificial inoculation, the plants were transferred to a humid chamber with a relative humidity of about 95% and 23 to 27° C. for 24 hr. The trial plants were cultivated for up to 14 days in a greenhouse chamber at 23 to 27° C. and a relative humidity between 60 and 80%. The extent of fungal attack on the leaves was visually assessed as % diseased leaf area, the disease level of untreated controls was usually higher than 85%.
(§3) All test results below are given for the control of phytopathogenic fungi containing the amino acid substitution F129L in the mitochondrial cytochrome b protein conferring resistance to Qo inhibitors.

[2] = system: Phakopsora pachyrhizi (strain with amino acid substitution F129L in the mitochondrial cytochrome b protein); test: Use Example 1: protective control of soybean rust on soybeans (PHAKPA P2), greenhouse; format: in vivo; conditions: soybean seedlings inoculated 2 days after treatment, % diseased leaf area; for % PHAKPA Disease level P2 at 4 ppm: 4 ppm spray; for % PHAKPA Disease level P2 at 16 ppm: 16 ppm spray
Experimental: as §1
as §2, with “active ingredient or their mixture as described” for “active ingredient as described”, “cultivated for 2 days in” for “cultivated for six days in”, “95% and 20 to 24°” for “95% and 23 to 27°”, “20 to 24° C. for” for “23 to 27° C. for”
as §3

CNC(=O)/C(=N/OC)c1cccc(C)c1CO/N=C/c1ccccc1 [Compound 2]
% PHAKPA Disease level P6 at 4 ppm [1]: 63% | % PHAKPA Disease level P6 at 16 ppm [1]: 15% | % PHAKPA Disease level P2 at 4 ppm [2]: 50% | % PHAKPA Disease level P2 at 16 ppm [2]: 2%

CNC(=O)/C(=N/OC)c1cccc(C)c1CO/N=C/c1ccccc1C(F)(F)F [Compound 3]
% PHAKPA Disease level P6 at 4 ppm [1]: 83% | % PHAKPA Disease level P6 at 16 ppm [1]: 21% | % PHAKPA Disease level P2 at 4 ppm [2]: 36% | % PHAKPA Disease level P2 at 16 ppm [2]: 2%

CO/N=C(/C(=O)OC)c1cccc(C)c1CO/N=C/c1ccccc1 [Compound 1]
% PHAKPA Disease level P6 at 4 ppm [1]: 90% | % PHAKPA Disease level P6 at 16 ppm [1]: 83% | % PHAKPA Disease level P2 at 4 ppm [2]: 100% | % PHAKPA Disease level P2 at 16 ppm [2]: 96%
